These results are taken from patent publication US11608341B2, “Substituted tetrahydropyrazolo[3,4-d]pyrimidines and tetrahydropyrazolo[4,3-d]pyrimidines as C5A receptor modulators” (Idorsia Pharmaceuticals Ltd., priority 2018, dated 2023).

pIC50: −log10 of the molar value.

The assay concerns the target T1, C5AR1 (Homo sapiens, UniProt P21730).
T1 construct: host or cells: CHO-K1
T1 sequence (P21730 1-350): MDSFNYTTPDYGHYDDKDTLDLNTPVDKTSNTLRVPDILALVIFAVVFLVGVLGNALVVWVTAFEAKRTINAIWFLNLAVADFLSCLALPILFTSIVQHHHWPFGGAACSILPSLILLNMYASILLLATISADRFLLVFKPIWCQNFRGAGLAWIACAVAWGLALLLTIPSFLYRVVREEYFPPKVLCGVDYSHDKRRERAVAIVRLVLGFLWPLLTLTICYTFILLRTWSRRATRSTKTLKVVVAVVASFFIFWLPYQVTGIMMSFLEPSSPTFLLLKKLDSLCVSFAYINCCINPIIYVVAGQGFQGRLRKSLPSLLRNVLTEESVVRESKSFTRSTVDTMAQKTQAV
The assay can be described thus: In vitro assay: antagonism of C5a-induced beta-arrestin recruitment (PathHunter) in CHO-K1 C5AR1 beta-arrestin cell line. Type of assay: cell-based. The conditions noted are these: antagonistic activity, 1-10 nM C5a agonist, geometric mean where several measurements, read-out: C5aR IC50. Summed up: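 Antagonist or DMSO added first, then C5a (1-10 nM, added at 6-fold end concentration), 1.5 h at 37 °C. PathHunter detection reagent was added for 45 min at RT before plate reading. IC50s come from antagonist serial dilutions in nmol/l and are geometric means of several measurements.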
For `COc1nccc(C)c1N1CCC(N2C(=O)N(Cc3ccccc3C3CC3)c3c[nH]nc3C2C)CC1` (single isomer, unassigned) [Example 274], the pIC50 was 7.43.

Regarding `Cc1cccc(F)c1N1CCC(N2Cc3cn(CCN4CCCCC4)nc3N(Cc3ccccc3C(F)(F)F)C2=O)CC1` [Example 63], the negative logarithm of the IC50 (pIC50) was 7.04.

With `COc1ncnc(C)c1N1CCC(N2Cc3cn(C)nc3N(Cc3ccccc3C(F)(F)F)C2=O)CC1` [Example 96], the pIC50 is 6.31.

For `Cc1cccc(F)c1N1CCC(N2Cc3cn(CC(C)CN)nc3N(Cc3ccccc3C(F)(F)F)C2=O)CC1` (stereo not shown) [Example 45], the pIC50 was 6.69.

For `Cc1cccc(F)c1N1CCC(N2Cc3nn(CC4(F)CC4)cc3N(Cc3ncccc3C(F)(F)F)C2=O)CC1` [Example 208], the pIC50 is 8.52.

As for `COc1nccc(C)c1N1CCC(N2Cc3cn(CC4(F)CC4)nc3N(Cc3ccccc3C(F)(F)F)C2=O)CC1` [Example 201], the pIC50 was 8.22.

Turning to `Cc1cccc(F)c1N1CCC(N2Cc3cn(CC4(C)CC4)nc3N(Cc3ccccc3C(F)(F)F)C2=O)CC1` [Example 158], the pIC50 is 7.96.

Consider `Cc1ccnc(C#N)c1N1CCC(N2Cc3cn(C)nc3N(Cc3ccccc3C(F)(F)F)C2=O)CC1` [Example 85], for which the pIC50 was 7.47.

In the case of `Cc1cccc(F)c1N1CCC(N2Cc3cn(C)nc3N(Cc3ccccc3Cl)C2=O)CC1` [Example 233], the pIC50 is 8.00.

Consider `Cc1cccc(F)c1N1CCC(C)(N2Cc3cn(C)nc3N(Cc3ccccc3C(F)(F)F)C2=O)C1` (single isomer, unassigned) [Example 235], for which the pIC50 was 6.77.

In the case of `COc1nccc(C(F)F)c1N1CCC(N2C(=O)N(Cc3ccccc3C3CC3)c3n[nH]cc3C2C)CC1` (single isomer, unassigned) [Example 371], the pIC50 is 5.88.

In the case of `CC1c2cn(C)nc2N(Cc2ccccc2C2CC2)C(=O)N1C1CCN(c2c(F)cccc2Cl)CC1` (single isomer, unassigned) [Example 321], the pIC50 is 6.71.

`Cc1cccc(F)c1N1CCC(N2Cc3nn(COCC[Si](C)(C)C)cc3N(Cc3ccccc3C(F)(F)F)C2=O)CC1` [Example 195]: the pIC50 was 7.35.

As to `Cc1cccc(F)c1N1CCC(N2Cc3cn(C4CN(CCF)C4)nc3N(Cc3ccccc3C(F)(F)F)C2=O)CC1` [Example 107], the pIC50 is 7.28.

With `Cc1cccc(F)c1N1CCC(N2Cc3cn(C[C@@H]4CCN4)nc3N(Cc3ccccc3C(F)(F)F)C2=O)CC1` [Example 122], the pIC50 is 6.47.

For the compound `Cc1cccc(F)c1N1CCC(N2C(=O)N(Cc3ccccc3C3CC3)c3cn(C4CCCCO4)nc3C2C)CC1` (stereo not shown) [Example 268], the negative logarithm of the IC50 (pIC50) was 7.14.

Regarding `COc1nccc(C)c1N1CCC(N2C(=O)N(Cc3ccccc3C(F)(F)F)c3nn(C4CC4)cc3C2C)CC1` (single isomer, unassigned) [Example 345], the pIC50 was 7.46.

Take `COC(=O)Cn1cc2c(n1)N(Cc1ccccc1C(F)(F)F)C(=O)N(C1CCN(c3c(C)cccc3F)CC1)C2` [Example 17]: the pIC50 was 7.89.

On to `Cc1cccc(F)c1N1CCC(N2Cc3c(cnn3C3CC3)N(Cc3ncccc3C(F)(F)F)C2=O)CC1` [Example 215], for which the pIC50 was 6.84.

Regarding `Cc1cccc(F)c1N1CCC(N2Cc3cn(C)nc3N(Cc3ccccc3OC3CC3)C2=O)CC1` [Example 21], the pIC50 was 7.89.

As to `Cc1cccc(F)c1N1CCC(N2Cc3cn(C4CN(S(=O)(=O)N(C)C)C4)nc3N(Cc3ccccc3C(F)(F)F)C2=O)CC1` [Example 137], the pIC50 was 7.09.

For the compound `Cc1cccc(F)c1N1CCC(N2Cc3cn(C[C@@H]4CCN4C(=O)OC(C)C)nc3N(Cc3ccccc3C(F)(F)F)C2=O)CC1` [Example 125], the pIC50 was 7.85.

As for `Cc1cccc(F)c1N1CCC(N2Cc3cn(C[C@@H]4CC(F)(F)CN4)nc3N(Cc3ccccc3C(F)(F)F)C2=O)CC1` [Example 112], the pIC50 is 7.74.

In the case of `COc1nccc(C)c1N1CCC(N2Cc3cn(C)nc3N(Cc3ncccc3C(F)(F)F)C2=O)CC1` [Example 138], the pIC50 was 7.96.

As for `Cc1cccc(F)c1N1CCC(N2C(=O)N(Cc3ccccc3C(F)(F)F)c3cn(CC(C)(F)F)nc3C2C)CC1` (single isomer, unassigned) [Example 254], the pIC50 was 6.72.

`C=C(C)Cn1cc2c(n1)N(Cc1ccccc1C(F)(F)F)C(=O)N(C1CCN(c3c(C)cccc3F)CC1)C2` [Example 154]: the pIC50 was 7.59.

As for `Cc1cccc(F)c1N1CCC(N2Cc3cn(C4CN(c5nnc(C(C)C)o5)C4)nc3N(Cc3ccccc3C(F)(F)F)C2=O)CC1` [Example 143], the pIC50 was 7.77.

`Cc1cccc(F)c1N1CCC(N2Cc3cn(CCN)nc3N(Cc3ccccc3C(F)(F)F)C2=O)CC1` [Example 26]: the pIC50 was 6.76.

On to `COc1nccc(C)c1N1CCC(N2C(=O)N(Cc3ncccc3C(F)(F)F)c3nn(C)cc3C2C)CC1` (single isomer, unassigned) [Example 357], for which the pIC50 was 6.24.

Take `CC1c2nn(C3CC3)cc2N(Cc2ccccc2C(F)(F)F)C(=O)N1C1CCN(c2c(F)cccc2Cl)CC1` (single isomer, unassigned) [Example 328]: the pIC50 is 8.00.

Consider `COC(=O)Cn1cc2c(n1)CN(C1CCN(c3c(C)cccc3F)CC1)C(=O)N2Cc1ccccc1C(F)(F)F` [Example 18], for which the pIC50 was 6.88.

For `Cc1cccc(F)c1N1CCC(N2Cc3cn(C[C@H]4CC(F)(F)CN4C(=O)OC(C)(C)C)nc3N(Cc3ccccc3C(F)(F)F)C2=O)CC1` [Example 108], the pIC50 is 7.68.

Turning to `Cc1cccc(F)c1N1CCC(N2Cc3cn(C4CN(S(C)(=O)=O)C4)nc3N(Cc3ccccc3C(F)(F)F)C2=O)CC1` [Example 136], the pIC50 was 6.79.

As for `COc1nccc(C)c1N1CCC(N2Cc3c[nH]nc3N(Cc3ccccc3C(F)(F)F)C2=O)CC1` [Example 197], the pIC50 was 7.77.

On to `COc1nccc(C)c1N1CCC(N2C(=O)N(Cc3ccccc3C(F)(F)F)c3cn(C)nc3C2C)CC1` (single isomer, unassigned) [Example 298], for which the pIC50 was 7.54.

`COc1ncnc(OC)c1N1CCC(N2Cc3cn(C)nc3N(Cc3ccccc3C(F)(F)F)C2=O)CC1` [Example 100]: the pIC50 is 6.47.

For the compound `Cc1cccc(F)c1N1CCC(N2Cc3cn(C(=O)OC(C)C)nc3N(Cc3ccccc3C(F)(F)F)C2=O)CC1` [Example 147], the pIC50 was 6.82.

Consider `CNc1ccc(C(F)(F)F)c(CN2C(=O)N(C3CCN(c4c(C)cccc4F)CC3)Cc3cn(C)nc32)n1` [Example 51], for which the pIC50 was 7.34.

Take `Cn1cc2c(n1)N(Cc1ccccc1C(F)(F)F)C(=O)N(C1CCN(c3c(F)cccc3C3CC3)CC1)C2` [Example 303]: the pIC50 is 8.00.

`COc1nccc(C)c1N1CCC(N2Cc3nn(C)cc3N(Cc3ccccc3C(F)(F)F)C2=O)CC1` [Example 224]: the pIC50 was 7.12.

Consider `CC1c2cn(C)nc2N(Cc2ccccc2C2CC2)C(=O)N1C1CCN(c2c(F)cccc2C2CC2)CC1` (single isomer, unassigned) [Example 325], for which the negative-log IC50 (pIC50) was 7.85.

`CC(c1ccccc1C(F)(F)F)N1C(=O)N(C2CCN(c3c(F)cccc3F)CC2)Cc2cn(C)nc21` (single isomer, unassigned) [Example 290]: the pIC50 is 6.45.

For the compound `Cc1cccc(F)c1N1CCC(N2Cc3cn(CCN4CCCC4)nc3N(Cc3ccccc3C(F)(F)F)C2=O)CC1` [Example 62], the pIC50 is 6.98.

As usually defined, the pIC50 is the negative decadic logarithm of the IC50, by convention in mol/L.
